The values below come from patent US8088756B2, “Methods and compositions for oral delivery of FTS” (Concordia Pharmaceuticals, Inc., priority 2004, dated 2012).

In one series the test system is Panc-1 cells. Briefly: Inhibition of pancreatic tumor growth with orally administered FTS (subcutaneous Panc-1 implant). The class given is in vivo, Nude CD1-Nu Mice. The note with it: for average tumor weight: control 1.02 g. The method, then: Nude CD1-Nu Mice were implanted subcutaneously with 5.0×10^6 Panc-1 cells in 0.2 ml of PBS just above the right femoral joint. Eleven days after implantation, palpable tumors were observed. FTS was dispersed in 0.5% aqueous carboxymethylcellulose at a concentration of 5 mg/ml. On the eleventh day after implantation, mice were segregated into three groups and were given vehicle or FTS suspension by gavage. Group 1 (Controls, 6 mice) received 0.2 ml vehicle daily. Group 2 (20 mg/kg FTS, 7 mice) received 0.1 ml FTS suspension daily. Group 3 (40 mg/kg FTS, 6 mice) received 0.2 ml FTS suspension daily. Mice were treated for ten days, and were sacrificed. Tumors were excised and weighed.

The nature of series [1]: Bioavailability of orally administered FTS formulated in 0.5% aqueous carboxymethylcellulose (plasma FTS by LC/MS). It counts as in vivo, CD-1 mice. The note with it: CD-1, mouse, 40 mg/kg, mice, gavage, 0.5% aqueous carboxymethylcellulose suspension. Here is the method:
(§1) FTS (40 Mg) was dispersed in 0.5% aqueous carboxymethylcellulose (10 ml). Aliquots of the resulting suspension were administered by gavage to CD-1 mice (eighteen) at a dose of […] (at a volume of 10 ml/kg of FTS suspension calculated for actual animal weight). Blood samples were collected in lithium heparin tubes via the retro-orbital plexus while under CO2/O2 anesthesia at 1, 2, 4, 8, 12, and 24 hours (3 animals at each time point) after dosing. Aliquots (100 μL) of plasma were mixed with water, pH 11 buffer solution, and acetonitrile. After centrifugation, the supernatant was evaporated to dryness. The residue was re-suspended in water/acetonitrile and centrifuged, and the supernatant was transferred to auto-sampler vials for FTS determination by LC/MS.

The nature of series [2]: Bioavailability of orally administered FTS formulated in corn oil (plasma FTS by LC/MS). It counts as in vivo, CD-1 mice. The note with it: CD-1, mouse, 40 mg/kg, mice, gavage, corn oil suspension. The method, then: as §1, with “mg)” for “Mg)”, “corn oil” for “0.5% aqueous carboxymethylcellulose”, “12” for “12,”, “solution” for “solution,”, “resuspended” for “re-suspended”, “liquid chromatography/mass spectrometry (LC/MS).” for “LC/MS.”
There was a rapid decrease to less than 3 ng/ml after 24 hours.

Series [3] in a line: Bioavailability of orally administered FTS to rats (plasma FTS by LC/MS). It counts as in vivo, Crl:CD(SD) (IGS)BR rats. Conditions: oral 200 mg/kg in corn oil (95%) and ethanol (5%). Here is the method: FTS was dissolved in a mixture of corn oil (95%) and ethanol (5%). Aliquots of the resulting solution were administered to Crl:CD(SD) (IGS)BR rats (twenty-four) at a dose of 200 mg/kg. Blood samples were collected in lithium-heparin-containing tubes via the retro-orbital plexus while under CO2/O2 anesthesia at 1, 2, 4, 8, 12 and 24 hours after dosing. Concentration of FTS at each time point was determined by LC/MS.

Series [4] is described as follows: Compatibility of FTS with pharmaceutical excipients (accelerated stability, HPLC assay). It counts as physicochemical. The note with it: 1:1 w/w mixture with FTS, 40° C./75% RH, loosely capped vials. Here is the method: Physical mixtures (1:1 w/w) of FTS and representative pharmaceutical excipients commonly used in oral formulations were stored at 40° C./75% RH accelerated stress conditions for four weeks in loosely capped vials. Samples were assayed by HPLC at the 0, 2-week and 4-week time points.

[5] abbreviates: 20 mg/kg FTS daily by gavage in 0.5% CMC for ten days.
Setting [6] is: 40 mg/kg FTS daily by gavage in 0.5% CMC for ten days.
Setting [7] is: oral, dose 40 mg/ml (10 ml/kg), 1 hour.
[8] abbreviates: oral, dose 40 mg/ml (10 ml/kg), 2 hours.
Where [9] appears, read: oral, dose 40 mg/ml (10 ml/kg), 24 hours.
Setting [10] is: po, read-out: oral bioavailability compared to intra-peritoneal injection.

Take `CC(C)=CCC/C(C)=C/CC/C(C)=C/CSc1ccccc1C(=O)O` [FTS, farnesyl-thiosalicylic acid]: the “tumor weight lower than control” value in the series with Panc-1 cells (setting [5]) turned out to be 32%; in the series with Panc-1 cells (setting [6]), 53%. Further, the average tumor weight turned out to be 0.68 g with Panc-1 cells (setting [5]) and 0.47 g in the series with Panc-1 cells (setting [6]). For the same molecule, the concentration at 1 h was 3380 ng/mL in series [1] (setting [7]); 2160 ng/mL in series [2] (setting [7]); 4450 ng/mL in series [3] (Crl:CD(SD) (IGS)BR, rat, plasma, 1 hour). Besides, the concentration at 2 h came to 1590 ng/mL in series [1] (setting [8]); 1330 ng/mL in series [2] (setting [8]); 4550 ng/mL in series [3] (Crl:CD(SD) (IGS)BR, rat, plasma, 2 hours). The concentration at 24 h is under 3 ng/mL in series [1] (setting [9]); under 3 ng/mL in series [2] (setting [9]); 140 ng/mL in series [3] (Crl:CD(SD) (IGS)BR, rat, plasma, 24 hours). Besides, the bioavailability in series [1] (setting [10]) is 69%; in series [2] (setting [10]) it was 55%. Besides, in series [3] (Crl:CD(SD) (IGS)BR, rat, plasma, 4 hours), the concentration at 4 h amounted to 3050 ng/mL. Also, in series [3] (Crl:CD(SD) (IGS)BR, rat, plasma, 8 hours), the concentration at 8 h worked out at 2220 ng/mL. Besides, the concentration at 12 h in series [3] (Crl:CD(SD) (IGS)BR, rat, plasma, 12 hours) worked out at 685 ng/mL. The “oral bioavailability (in words)” value in series [3] was “high level of oral bioavailability”. Further, the “HPLC assay, 0 weeks” value in series [4] (0 weeks, in % (unit assumed)) is recorded as 97.75. The HPLC assay, 2 weeks in series [4] (2 weeks) stood at 97.1%. The “HPLC assay, 4 weeks” value in series [4] (4 weeks, in % (unit assumed)) was found to be 97.76.

By bioavailability is commonly meant the share of a dose that reaches the circulation, judged against a reference dose that is usually intravenous.
